Reference: ChEMBL document CHEMBL1201862, “PubChem BioAssay data set” (2004)
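Method: 48-hour compound exposure of cells in 96-well plates, five concentrations, linear interpolation of endpoints. Abbreviation: GI50, concentration required for 50% inhibition of growth.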 The source made the active and inactive calls. No stated cut-off is given here; in the data, active = GI50 up to about 1.1 µM and inactive = higher.

How the values were obtained:
Test in all cases: inhibition of tumour cell growth, NCI panel, 48 h
786-0 = tested on: 786-0
A498 = tested on: A498
A549 = tested on: A549
ACHN = tested on: ACHN
CAKI-1 = tested on: CAKI-1
CCRF-CEM = tested on: CCRF-CEM
COLO 205 = tested on: COLO 205
DLD-1 = tested on: DLD-1
DMS-114 = tested on: DMS-114
DMS-273 = tested on: DMS-273
EKVX = tested on: EKVX
HCC 2998 = tested on: HCC 2998
HCT-116 = tested on: HCT-116
HCT-15 = tested on: HCT-15
HL-60 = tested on: HL-60
HOP-18 = tested on: HOP-18
HOP-62 = tested on: HOP-62
HOP-92 = tested on: HOP-92
HT-29 = tested on: HT-29
IGROV-1 = tested on: IGROV-1
K562 = tested on: K562
KM-20L2 = tested on: KM-20L2
KM12 = tested on: KM12
LOX IMVI = tested on: LOX IMVI
LXFL 529 = tested on: LXFL 529
M14 = tested on: M14
M19-MEL = tested on: M19-MEL
Malme-3M = tested on: Malme-3M
NCI-H226 = tested on: NCI-H226
NCI-H23 = tested on: NCI-H23
NCI-H460 = tested on: NCI-H460
NCI-H522 = tested on: NCI-H522
OVCAR-3 = tested on: OVCAR-3
OVCAR-4 = tested on: OVCAR-4
OVCAR-5 = tested on: OVCAR-5
OVCAR-8 = tested on: OVCAR-8
RPMI-8226 = tested on: RPMI-8226
RXF 393 = tested on: RXF 393
SF-268 = tested on: SF-268
SF-295 = tested on: SF-295
SF-539 = tested on: SF-539
SK-MEL-28 = tested on: SK-MEL-28
SK-MEL-2 = tested on: SK-MEL-2
SK-MEL-5 = tested on: SK-MEL-5
SK-OV-3 = tested on: SK-OV-3
SNB-19 = tested on: SNB-19
SNB-75 = tested on: SNB-75
SNB-78 = tested on: SNB-78
SW-620 = tested on: SW-620
TK-10 = tested on: TK-10
U-251 = tested on: U-251
UACC-257 = tested on: UACC-257
UACC-62 = tested on: UACC-62
UO-31 = tested on: UO-31
XF498 = tested on: XF498
MOLT-4 = tested on: MOLT-4

With `Cc1c(CCO)c(O)n2c(nc3ccccc32)c1C#N` the GI50 (786-0) was 66.4 µM (inactive), the GI50 (A498) was > 100 µM (inactive) and the GI50 (A549) was > 100 µM (inactive). For the same molecule, the GI50 (ACHN) was > 100 µM (inactive), the GI50 (CAKI-1) was 59 µM (inactive) and the GI50 (CCRF-CEM) was 29.4 µM (inactive). The GI50 (COLO 205) was > 100 µM (inactive), the GI50 (DLD-1) was > 100 µM (inactive) and the GI50 (DMS-114) was 44.5 µM (inactive). The GI50 (DMS-273) was 63.2 µM (inactive), the GI50 (EKVX) was > 100 µM (inactive) and the GI50 (HCC 2998) was > 100 µM (inactive). For the same molecule, the GI50 (HCT-116) was 41.3 µM (inactive), the GI50 (HCT-15) was 45.7 µM and the GI50 (HL-60) was 10 µM (inactive). The GI50 (HOP-18) was 47.5 µM (inactive), the GI50 (HOP-62) was > 100 µM (inactive) and the GI50 (HOP-92) was 33.1 µM (inactive). For the same molecule, the GI50 (HT-29) was 44.3 µM (inactive), the GI50 (IGROV-1) was 68.4 µM (inactive) and the GI50 (K562) was 99.5 µM (inactive). The GI50 (KM-20L2) was 66.5 µM (inactive), the GI50 (KM12) was > 100 µM (inactive) and the GI50 (LOX IMVI) was 68.7 µM (inactive). For the same molecule, the GI50 (LXFL 529) was 36.6 µM (inactive), the GI50 (M14) was 84.1 µM (inactive) and the GI50 (M19-MEL) was > 100 µM (inactive). The GI50 (Malme-3M) was > 100 µM (inactive), the GI50 (NCI-H226) was 98.4 µM (inactive) and the GI50 (NCI-H23) was 53.8 µM (inactive). For the same molecule, the GI50 (NCI-H460) was 26.7 µM (inactive), the GI50 (NCI-H522) was 34.7 µM (inactive) and the GI50 (OVCAR-3) was 92.5 µM (inactive). The GI50 (OVCAR-4) was 39.4 µM (inactive), the GI50 (OVCAR-5) was > 100 µM (inactive) and the GI50 (OVCAR-8) was 83.9 µM (inactive). For the same molecule, the GI50 (RPMI-8226) was 26.7 µM (inactive), the GI50 (RXF 393) was > 100 µM (inactive) and the GI50 (SF-268) was > 100 µM (inactive). The GI50 (SF-295) was > 100 µM (inactive), the GI50 (SF-539) was > 100 µM (inactive) and the GI50 (SK-MEL-28) was > 100 µM (inactive). The GI50 (SK-MEL-2) was 91.6 µM (inactive), the GI50 (SK-MEL-5) was 21.8 µM (inactive) and the GI50 (SK-OV-3) was > 100 µM (inactive). The GI50 (SNB-19) was 30.3 µM (inactive), the GI50 (SNB-75) was > 100 µM (inactive) and the GI50 (SNB-78) was 61 µM (inactive). For the same molecule, the GI50 (SW-620) was 54.1 µM (inactive), the GI50 (TK-10) was > 100 µM (inactive) and the GI50 (U-251) was 46.1 µM (inactive). The GI50 (UACC-257) was > 100 µM (inactive), the GI50 (UACC-62) was > 100 µM (inactive) and the GI50 (UO-31) was 65.8 µM (inactive). The GI50 (XF498) was > 100 µM (inactive).

`Clc1cc2nsnc2c(Cl)n1` was tested, and the GI50 (786-0) was 16.9 µM (inactive), the GI50 (A498) was > 100 µM (inactive) and the GI50 (A549) was 50 µM (inactive). The GI50 (ACHN) was 32.5 µM (inactive), the GI50 (CAKI-1) was 10.8 µM (inactive) and the GI50 (CCRF-CEM) was 6.03 µM (inactive). The GI50 (COLO 205) was 15.3 µM (inactive), the GI50 (DLD-1) was 20.3 µM (inactive) and the GI50 (DMS-114) was 15.6 µM (inactive). For the same molecule, the GI50 (DMS-273) was 36.3 µM (inactive), the GI50 (EKVX) was > 100 µM (inactive) and the GI50 (HCC 2998) was > 100 µM (inactive). For the same molecule, the GI50 (HCT-15) was 21.3 µM, the GI50 (HL-60) was 14.1 µM (inactive) and the GI50 (HOP-18) was 17.5 µM (inactive). For the same molecule, the GI50 (HOP-62) was > 100 µM (inactive), the GI50 (HOP-92) was 16.6 µM (inactive) and the GI50 (HT-29) was 21.7 µM (inactive). The GI50 (IGROV-1) was 26.2 µM (inactive), the GI50 (K562) was 5.41 µM (inactive) and the GI50 (KM-20L2) was 37.6 µM (inactive). For the same molecule, the GI50 (KM12) was 47.2 µM (inactive), the GI50 (LOX IMVI) was 33 µM (inactive) and the GI50 (LXFL 529) was 14.4 µM (inactive). The GI50 (M14) was 15.2 µM (inactive), the GI50 (M19-MEL) was 24.7 µM (inactive) and the GI50 (MOLT-4) was 14.2 µM (inactive). For the same molecule, the GI50 (Malme-3M) was 16.3 µM (inactive), the GI50 (NCI-H226) was 20.6 µM (inactive) and the GI50 (NCI-H23) was 19.1 µM (inactive). For the same molecule, the GI50 (NCI-H460) was 38.5 µM (inactive), the GI50 (NCI-H522) was 18.4 µM (inactive) and the GI50 (OVCAR-3) was 17.9 µM (inactive). The GI50 (OVCAR-4) was 17.1 µM (inactive), the GI50 (OVCAR-5) was 43 µM (inactive) and the GI50 (RPMI-8226) was 22.2 µM (inactive). For the same molecule, the GI50 (SF-268) was 26.4 µM (inactive), the GI50 (SF-295) was 41.5 µM (inactive) and the GI50 (SF-539) was 22.9 µM (inactive). For the same molecule, the GI50 (SK-MEL-28) was 20.1 µM (inactive), the GI50 (SK-MEL-2) was 17.2 µM (inactive) and the GI50 (SK-MEL-5) was 16.9 µM (inactive). The GI50 (SK-OV-3) was 2.62 µM (inactive), the GI50 (SNB-19) was 19 µM (inactive) and the GI50 (SNB-78) was 56.4 µM (inactive). The GI50 (SW-620) was 10.2 µM (inactive), the GI50 (TK-10) was 20.9 µM (inactive) and the GI50 (U-251) was 20.3 µM (inactive). The GI50 (UACC-257) was 26.7 µM (inactive), the GI50 (UACC-62) was 26.5 µM (inactive) and the GI50 (UO-31) was 20.6 µM (inactive). For the same molecule, the GI50 (XF498) was 17.3 µM (inactive).
